pEC50: −log10 of the molar value.
How the values were obtained:
[1] = target: T1, TLR7 (Homo sapiens, UniProt Q9NYK1); assay: Human PBMC cell-based assay, TLR7 agonist stimulation; details: human PBMCs; TLR7 agonist GS-986 400 nM; 6 hours; cytokines (IL-6 and IFNα) in supernatant; Table 2; read-out: TLR-7 EC50
T1 construct: lymphocytes, monocytes and dendritic cells that express TLR7, TLR8 and TLR9; endogenous in cells; host or cells: cryopreserved human PBMCs from healthy donors
T1 sequence (Q9NYK1 27-1049): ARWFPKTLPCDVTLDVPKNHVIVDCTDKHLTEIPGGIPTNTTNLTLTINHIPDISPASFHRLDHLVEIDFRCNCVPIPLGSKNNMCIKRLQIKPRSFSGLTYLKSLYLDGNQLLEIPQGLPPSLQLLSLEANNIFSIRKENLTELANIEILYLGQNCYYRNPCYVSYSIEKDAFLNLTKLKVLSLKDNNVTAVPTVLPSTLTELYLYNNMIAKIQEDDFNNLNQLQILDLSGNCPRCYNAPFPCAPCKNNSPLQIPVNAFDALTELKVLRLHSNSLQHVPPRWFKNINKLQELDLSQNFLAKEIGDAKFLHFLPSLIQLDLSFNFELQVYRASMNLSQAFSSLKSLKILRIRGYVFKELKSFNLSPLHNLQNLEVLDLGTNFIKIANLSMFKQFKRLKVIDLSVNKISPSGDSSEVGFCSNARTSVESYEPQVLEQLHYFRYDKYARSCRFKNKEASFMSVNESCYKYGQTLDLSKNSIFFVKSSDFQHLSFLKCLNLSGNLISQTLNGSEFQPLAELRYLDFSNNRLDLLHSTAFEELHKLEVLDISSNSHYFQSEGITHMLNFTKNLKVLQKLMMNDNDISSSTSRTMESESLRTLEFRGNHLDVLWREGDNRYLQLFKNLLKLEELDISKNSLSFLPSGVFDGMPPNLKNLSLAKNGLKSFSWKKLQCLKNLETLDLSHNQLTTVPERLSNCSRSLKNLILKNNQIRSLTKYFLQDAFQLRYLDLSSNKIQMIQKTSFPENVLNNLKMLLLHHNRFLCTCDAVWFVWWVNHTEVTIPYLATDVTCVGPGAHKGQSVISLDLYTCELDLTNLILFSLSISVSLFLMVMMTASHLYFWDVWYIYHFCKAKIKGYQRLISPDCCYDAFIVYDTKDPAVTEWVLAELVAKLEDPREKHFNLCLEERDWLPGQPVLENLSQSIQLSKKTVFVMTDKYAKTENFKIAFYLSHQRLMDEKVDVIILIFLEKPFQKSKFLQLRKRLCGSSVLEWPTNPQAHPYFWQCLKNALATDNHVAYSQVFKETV
From the text: (§1) Human Peripheral Blood Mononuclear Cell (PBMC) Cell-Based Assay
(§2) Human peripheral blood mononuclear cells (PBMCs) consist of lymphocytes, monocytes and dendritic cells that express TLR7, TLR8 and TLR9. These cells respond to TLR7, TLR8 and TLR9 ligand stimulation and produce cytokines and chemokines in vitro and in vivo. Human PBMCs are therefore suitable to be used in a cell-based assay to assess the in vitro potency of a TLR 7, 8, and/or 9 antagonist. The result is expected to be more translatable to the pharmacodynamics response in vivo than cell line-based assays.
(§3) Cryopreserved human PBMCs from healthy donors were thawed and resuspended in RPMI-1640 media with L-glutamine (Corning) supplemented with 10% Fetal Bovine Serum (Hyclone) and 1× Penicillin-Streptomycin (Corning). After counting, the cell density was adjusted to 2 million cells/ml and incubated for 1 hour at 37° C., 5% CO2 for recovery. Following the recovery, the cells were plated by adding 50p per well (100,000 cells) to 384-well cell culture plates (Greiner) containing 250 nl of test antagonists in 100% DMSO per well, in a 10 points dose response in quadruplicates. PBMCs were incubated in the presence of test antagonists for one hour at 37° C., 5% CO2 before being stimulated with a TLR7 or TLR9 agonist. GS-986 (Gilead Sciences) was used as the TLR7 agonist at a final concentration of 400 nM. ODN-2216 (InvivoGen) was used as the TLR9 agonist at a final concentration of 3μM. PBMCs were incubated in the presence of the test antagonist and the TLR7 (or TLR9) agonist for an additional 6 hours at 37° C., 5% CO2. At the end of the incubation, the cell culture plates were centrifuged at 500 g for 5 min, and the cell culture supernatant was collected. The level of cytokines (IL-6 and IFNα) in the supernatant was measured by electrochemiluminescence immunoassays (Mesoscale Discovery) following manufacturer's recommended protocols. The level of cytokine measured was plotted against the test antagonist concentration and fitted to a sigmoidal function to determine the EC50, which are shown below in Table 2.

[2] = target: T2, TLR9 (Homo sapiens, UniProt Q9NR96); assay: Human PBMC cell-based assay, TLR9 agonist stimulation; details: human PBMCs; TLR9 agonist ODN-2216 3 μM; 6 hours; cytokines (IL-6 and IFNα) in supernatant; Table 2; read-out: TLR-9 EC50
T2 construct: lymphocytes, monocytes and dendritic cells that express TLR7, TLR8 and TLR9; endogenous in cells; host or cells: cryopreserved human PBMCs from healthy donors
T2 sequence (Q9NR96 26-1032): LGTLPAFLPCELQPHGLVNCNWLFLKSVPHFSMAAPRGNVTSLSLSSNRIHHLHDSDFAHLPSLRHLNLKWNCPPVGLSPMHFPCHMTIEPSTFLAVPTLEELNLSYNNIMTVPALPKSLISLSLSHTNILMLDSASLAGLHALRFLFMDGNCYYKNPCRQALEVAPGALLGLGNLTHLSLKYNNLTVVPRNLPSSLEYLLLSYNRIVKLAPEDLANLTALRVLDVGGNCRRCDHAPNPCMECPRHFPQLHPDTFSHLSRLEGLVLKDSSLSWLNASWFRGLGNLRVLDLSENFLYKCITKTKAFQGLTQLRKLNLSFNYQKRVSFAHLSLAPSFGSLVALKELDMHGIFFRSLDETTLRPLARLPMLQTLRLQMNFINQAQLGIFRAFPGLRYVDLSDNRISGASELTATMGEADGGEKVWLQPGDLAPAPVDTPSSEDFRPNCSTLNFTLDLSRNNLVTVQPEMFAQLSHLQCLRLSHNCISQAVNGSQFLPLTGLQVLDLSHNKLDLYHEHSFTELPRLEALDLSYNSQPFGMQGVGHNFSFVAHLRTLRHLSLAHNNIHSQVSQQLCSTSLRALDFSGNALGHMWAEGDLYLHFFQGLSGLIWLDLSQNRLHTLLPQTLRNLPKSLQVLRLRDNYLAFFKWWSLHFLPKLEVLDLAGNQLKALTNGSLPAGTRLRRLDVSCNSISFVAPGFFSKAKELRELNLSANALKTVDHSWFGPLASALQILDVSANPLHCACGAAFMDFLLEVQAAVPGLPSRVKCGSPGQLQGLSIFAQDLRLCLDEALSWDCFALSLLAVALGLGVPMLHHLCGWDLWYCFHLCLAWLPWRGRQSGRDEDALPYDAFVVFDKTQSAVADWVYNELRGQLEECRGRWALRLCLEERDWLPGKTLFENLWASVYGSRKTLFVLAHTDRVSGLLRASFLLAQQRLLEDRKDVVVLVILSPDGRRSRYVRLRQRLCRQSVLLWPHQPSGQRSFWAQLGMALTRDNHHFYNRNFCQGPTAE
From the text: as §1, §2, §3

Row | Compound | pEC50 [1] | pEC50 [2]
1 | Cc1cc(-c2ccc3c(C)c(-c4ccc(C(=O)N5CCNCC5)cc4)[nH]c3c2)cc(C)n1 [Example 21] | 6.90 | 7.08
2 | Cc1cc(-c2ccc3c(C)c(C4CCN(C(=O)c5cccnc5)CC4)[nH]c3c2)cc(C)n1 [Example 25] | < 6.00 | 5.55
3 | CCc1c(-c2ccc(N3CCNCC3)nc2)[nH]c2cc(-c3cc(C)nc(C)c3)ccc12 [Example 12] | 8.21 | 7.32
4 | Cc1cc(-c2cnc3c(C)c(-c4ccc(N5CCNCC5)nc4)[nH]c3c2)cc(C)n1 [Example 29] | 7.83 | 7.11
5 | CCc1c(-c2cnc(N3CCNCC3)nc2)[nH]c2cc(-c3cc(C)nc(C)c3)ccc12 [Example 14] | 8.21 | 7.43
6 | Cc1cc(-c2ccc3c(C)c(C4CCN(C(=O)c5cncn5C)CC4)[nH]c3c2)cc(C)n1 [Example 27] | < 6.00 | 5.47
7 | Cc1cc(-c2ccc3c(C)c(-c4ccc(N5CCNCC5)nc4)[nH]c3c2)ccn1 [Example 5] | 8.36 | 7.16
8 | Cc1cc(-c2ccc3c(C)c(C4=CCNCC4)[nH]c3c2)cc(C)n1 [Example 11, 6-(2,6-dimethylpyridin-4-yl)-3-methyl-2-(1,2,3,6-tetrahydropyridin-4-yl)-1H-indole] | 6.16 | 7.15
9 | Cc1cc(-c2ccc3c(C)c(-c4cccc(C(=O)N5CCNCC5)c4)[nH]c3c2)cc(C)n1 [Example 22, (3-(6-(2,6-dimethylpyridin-4-yl)-3-methyl-1H-indol-2-yl)phenyl)(piperazin-1-yl)methanone] | 7.18 | 7.21
10 | Cc1noc(C)c1-c1ccc2c(C)c(-c3ccc(N4CCNCC4)nc3)[nH]c2c1 [Example 6] | 6.35 | 5.68
11 | Cc1cc(-c2ccc3c(C)c(-c4ccc(N5CCN(CCO)CC5)nc4)[nH]c3c2)cc(C)n1 [Example 30, 2-(4-(5-(6-(2,6-dimethylpyridin-4-yl)-3-methyl-1H-indol-2-yl)pyridin-2-yl)piperazin-1-yl)ethan-1-ol] | 7.99 | 7.42
12 | Cc1cc(-c2ccc3c(C)c(-c4cccc(C(=O)N[C@H]5CCNC5)c4)[nH]c3c2)cc(C)n1 [Example 18] | 6.47 | 7.01
13 | Cc1c(-c2ccc(N3CCNCC3)nc2)[nH]c2cc(-c3cn[nH]c3)ccc12 [Example 9] | 6.33 | 6.33
14 | Cc1c(-c2cnc(N3CCNCC3)nc2)[nH]c2cc(-c3cc(C)c4ncnn4c3)ccc12 [Example 3] | 8.57 | 6.77
15 | Cc1c(-c2ccc(N3CCNCC3)nc2)[nH]c2cc(-c3ccnc4ccccc34)ccc12 [Example 8] | 6.84 | 6.43
16 | Cc1cc(-c2ccc3c(C)c(-c4ccc(C(=O)N[C@H]5CCNC5)cc4)[nH]c3c2)cc(C)n1 [Example 20] | 6.54 | 6.61
17 | Cc1cc(-c2cnc3c(C)c(-c4ccc(N5CCNCC5)cc4)[nH]c3c2)cc(C)n1 [Example 28, 6-(2,6-dimethylpyridin-4-yl)-3-methyl-2-(4-(piperazin-1-yl)phenyl)-1H-pyrrolo[3,2-b]pyridine] | 7.55 | 6.87
18 | Cc1cc(-c2ccc3c(C)c(-c4ccc(S(=O)(=O)N5CCNCC5)cc4)[nH]c3c2)cc(C)n1 [Example 15] | 6.29 | 6.69
19 | CCN1CCC(c2[nH]c3cc(-c4cc(C)nc(C)c4)ccc3c2C)CC1 [Example 13, 6-(2,6-dimethylpyridin-4-yl)-2-(1-ethylpiperidin-4-yl)-3-methyl-1H-indole] | < 6.00 | 6.76
20 | Cc1cc(-c2ccc3c(C)c(-c4ccc(C(=O)N[C@@H]5CCNC5)cc4)[nH]c3c2)cc(C)n1 [Example 19] | 6.48 | 6.37
21 | Cc1cc(-c2ccc3c(C)c(-c4cccc(C(=O)N[C@@H]5CCNC5)c4)[nH]c3c2)cc(C)n1 [Example 17, (R)-3-(6-(2,6-dimethylpyridin-4-yl)-3-methyl-1H-indol-2-yl)-N-(pyrrolidin-3-yl)benzamide] | 6.71 | 6.38
22 | COc1ccc(-c2ccc3c(C)c(-c4ccc(N5CCNCC5)nc4)[nH]c3c2)cc1OC [Example 10] | 7.23 | 6.29
23 | Cc1cc(-c2ccc3c(C)c(C4CCN(C(=O)CC5CCNCC5)CC4)[nH]c3c2)cc(C)n1 [Example 26] | < 6.00 | 5.88
24 | Cc1cc(-c2ccc3c(C)c(C4CCN(C(=O)CN(C)C)CC4)[nH]c3c2)cc(C)n1 [Example 24, 2-(dimethylamino)-1-(4-(6-(2,6-dimethylpyridin-4-yl)-3-methyl-1H-indol-2-yl)piperidin-1-yl)ethan-1-one] | < 6.00 | 6.88
25 | Cc1cc(-c2ccc3c(C)c(-c4cnc5c(c4)CNCC5)[nH]c3c2)cc(C)n1 [Example 16, 3-[6-(2,6-dimethyl-4-pyridyl)-3-methyl-1H-indol-2-yl]-5,6,7,8-tetrahydro-1,6-naphthyridine] | 7.17 | 7.55
